Experiments:
Assay type in all cases: in vivo
[1] = test system: Alopecurus myosuroides (ALOMY); assay: Pre-emergence herbicidal activity, glasshouse pot test; settings: 480 h, rate 250 g/ha, evaluated 20 days later, 100=total damage to plant, 0=no damage to plant
Procedure: (§1) Monocotyledonous and dicotyledonous test plants were sown in standard soil in pots. After cultivation for one day (pre-emergence) or after 10 days cultivation (post-emergence) under controlled conditions in a glasshouse, the plants were sprayed with an aqueous spray solution derived from the formulation of the technical active ingredient in 0.6 ml acetone and 45 ml formulation solution containing 10.6% Emulsogen EL (Registry number 61791-12-6), 42.2% N-methylpyrrolidone, 42.2% dipropylene glycol monomethyl ether (Registry number 34590-94-8) and 0.2% X-77 (Registry number 11097-66-8). The test plants were then grown in a greenhouse under optimum conditions until, 15 days later for post-emergence and 20 days for pre-emergence, the test was evaluated (100=total damage to plant; 0=no damage to plant). Test Plants: Alopecurus myosuroides (ALOMY), Avena fatua (AVEFA), Lolium perenne (LOLPE), Setaria faberi (SETFA), Digitaria sanguinalis (DIGSA), Echinochloa crus-galli (ECHCG)

Avena fatua (AVEFA) [2] = assay: as above; settings: 480 h, rate 250 g/ha, evaluated 20 days later, 100=total damage to plant, 0=no damage to plant
Procedure: as §1

[3] = test system: Digitaria sanguinalis (DIGSA); assay: as above; settings: 480 h, rate 250 g/ha, evaluated 20 days later, 100=total damage to plant, 0=no damage to plant
Procedure: as §1

[4] = test system: Echinochloa crus-galli (ECHCG); assay: as above; settings: 480 h, rate 250 g/ha, evaluated 20 days later, 100=total damage to plant, 0=no damage to plant
Procedure: as §1

Lolium perenne (LOLPE) [5] = assay: as above; settings: 480 h, rate 250 g/ha, evaluated 20 days later, 100=total damage to plant, 0=no damage to plant
Procedure: as §1

Setaria faberi (SETFA) [6] = assay: as above; settings: 480 h, rate 250 g/ha, evaluated 20 days later, 100=total damage to plant, 0=no damage to plant
Procedure: as §1

[7] = test system: Alopecurus myosuroides (ALOMY); assay: Post-emergence herbicidal activity, glasshouse pot test; settings: 360 h, rate 125 g/ha, evaluated 15 days later, 100=total damage to plant, 0=no damage to plant
Procedure: as §1

Avena fatua (AVEFA) [8] = assay: as above; settings: 360 h, rate 125 g/ha, evaluated 15 days later, 100=total damage to plant, 0=no damage to plant
Procedure: as §1

[9] = test system: Digitaria sanguinalis (DIGSA); assay: as above; settings: 360 h, rate 125 g/ha, evaluated 15 days later, 100=total damage to plant, 0=no damage to plant
Procedure: as §1

[10] = test system: Echinochloa crus-galli (ECHCG); assay: as above; settings: 360 h, rate 125 g/ha, evaluated 15 days later, 100=total damage to plant, 0=no damage to plant
Procedure: as §1

Lolium perenne (LOLPE) [11] = assay: as above; settings: 360 h, rate 125 g/ha, evaluated 15 days later, 100=total damage to plant, 0=no damage to plant
Procedure: as §1

Setaria faberi (SETFA) [12] = assay: as above; settings: 360 h, rate 125 g/ha, evaluated 15 days later, 100=total damage to plant, 0=no damage to plant
Procedure: as §1

| Structure (SMILES) | pest or weed control at 250 g/ha [1] [%] | pest or weed control at 250 g/ha (Avena fatua (AVEFA) [2]) [%] | pest or weed control at 250 g/ha [3] [%] | pest or weed control at 250 g/ha [4] [%] | pest or weed control at 250 g/ha (Lolium perenne (LOLPE) [5]) [%] | pest or weed control at 250 g/ha (Setaria faberi (SETFA) [6]) [%] | pest or weed control at 125 g/ha [7] [%] | pest or weed control at 125 g/ha (Avena fatua (AVEFA) [8]) [%] | pest or weed control at 125 g/ha [9] [%] | pest or weed control at 125 g/ha [10] [%] | pest or weed control at 125 g/ha (Lolium perenne (LOLPE) [11]) [%] | pest or weed control at 125 g/ha (Setaria faberi (SETFA) [12]) [%] |
| --- | --- | --- | --- | --- | --- | --- | --- | --- | --- | --- | --- | --- |
| CCc1ccc(-c2ccc(Cl)s2)cc1C1=C(O)[C@H]2[C@@H](C1=O)[C@@H]1CC[C@H]2O1 [Compound T18] | 50 | 20 | 100 | 90 | 80 | 90 | 100 | 100 | 100 | 100 | 70 | 100 |
| CCc1ccc(-c2ccc(Cl)cc2)cc1C1=C(O)[C@H]2[C@@H](C1=O)[C@]1(C)C=C[C@@]2(C)O1 [Compound T12] | 70 | 20 | 100 | 90 | 60 | 100 | 100 | 100 | 100 | 100 | 80 | 100 |
| CCc1ccc(-c2ccc(Cl)c(Cl)c2F)cc1C1=C(O)[C@H]2[C@@H](C1=O)[C@]1(C)CC[C@@]2(C)O1 [Compound T40] | 10 | 10 | 100 | 50 | 0 | 70 | 60 | 40 | 100 | 100 | 30 | 80 |
| CCc1cc(-c2ccc(C)cc2)cc(CC)c1C1=C(OC(C)=O)[C@H]2[C@@H](C1=O)[C@@H]1CC[C@H]2O1 [Compound P9] | 50 | 60 | 40 | 100 | 70 | 60 | 80 | 80 | 100 | 100 | 80 | 90 |
| Cc1cc(-c2ccccc2)cc(C)c1C1=C(OC(=O)C(C)(C)C)[C@H]2[C@@H](C1=O)[C@]1(C)CC[C@@]2(C)O1 [Compound P5] | 100 | 0 | 100 | 70 | 70 | 100 | 70 | 20 | 100 | 100 | 40 | 90 |
| CCc1ccc(-c2ccc(Cl)cc2F)cc1C1=C(O)[C@H]2[C@@H](C1=O)[C@]1(C)CC[C@@]2(C)O1 (racemic) [Compound T23, (1RS,2SR,6RS,7SR)-4-(4′-chloro-4-ethyl-2′-fluorobiphen-3-yl)-1,7-dimethyl-10-oxatricyclo[5.2.1.0^2,6]decane-3,5-dione] | 40 | 60 | 100 | 100 | 70 | 100 | 100 | 100 | 90 | 100 | 70 | 90 |
| CCc1ccc(-c2ccc(Cl)cc2F)cc1C1=C(O)[C@H]2[C@@H](C1=O)[C@@H]1CC[C@H]2O1 [Compound T10] | 70 | 70 | 100 | 100 | 80 | 100 | 90 | 90 | 100 | 100 | 90 | 100 |
| CCc1ccc(-c2ccc(Cl)cc2)cc1C1=C(O)[C@H]2[C@@H](C1=O)[C@]1(C)CC[C@@]2(C)O1 [Compound T3] | 70 | 80 | 100 | 100 | 80 | 100 | 100 | 90 | 90 | 90 | 80 | 90 |
| CCc1ccc(-c2ccc(Cl)c(F)c2)cc1C1=C(O)[C@H]2[C@@H](C1=O)[C@@H]1CC[C@H]2O1 [Compound T19] | 70 | 70 | 100 | 90 | 60 | 90 | 100 | 100 | 100 | 100 | 90 | 100 |
| CCc1cc(-c2ccc(C)cc2)cc(CC)c1C1C(=O)[C@@H]2[C@H](C1=O)[C@H]1CC[C@@H]2O1 (stereo partly drawn) [Compound T9] | 70 | 50 | 60 | 100 | 80 | 50 | 80 | 20 | 80 | 100 | 80 | 70 |
| CCc1ccc(-c2ccc(Cl)cc2C)cc1C1=C(O)[C@H]2[C@@H](C1=O)[C@@H]1CC[C@H]2O1 [Compound T13] | 40 | 20 | 80 | 70 | 30 | 80 | 50 | 30 | 10 | 100 | 40 | 80 |
| CC(=O)OC1=C(c2c(C)cc(-c3ccccc3)cc2C)C(=O)[C@@H]2[C@H]1[C@H]1CC[C@@H]2O1 [Compound P3] | 100 | 60 | 100 | 80 | 100 | 100 | 100 | 80 | 80 | 100 | 100 | 90 |

Source: patent US8940913B2, “Herbicides” (Syngenta Crop Protection, LLC, priority 2007, dated 2015)
